Data published in ChEMBL document CHEMBL1128836, “Synthesis of prodrugs and a mutual prodrug of chlorzoxazone and acetaminophen based on a masked benzoxazolone” (Bioorg Med Chem Lett, 1995).

Columns and labels:
[1] = Half life period in phosphate buffer at pH 7.4; format: ADME; conditions: for T1/2: buffer
[2] = Half life period in rat plasma at 37 degree Celsius temperature (pH 7.4); format: ADME, organism-based
Homo sapiens [3] = species: Homo sapiens; assay: Half life period in human plasma at 37 degree Celsius temperature (pH 7.4)
[4] = Half life period in phosphate buffer at pH 7.4 & 25 degrees C; format: ADME
[5] = Half life period in rat plasma at 25 degree Centigrade temperature (pH 7.4); format: ADME, organism-based
Homo sapiens [6] = species: Homo sapiens; assay: Half life period in human plasma at 25 degree Celsius temperature (pH 7.4)

**Q.** With `O=C(Nc1cc(Cl)ccc1O)Oc1ccccc1` as the compound, how does the half-life ([1]; phosphate buffer) read?
**A.** 0.2 min

**Q.** What does the source list for `O=C(Nc1cc(Cl)ccc1O)OCC(Cl)(Cl)Cl`?
**A.** half-life [2]: 7.5 min; half-life [1]: 3.2 min; half-life (Homo sapiens [3]): 10.1 min

**Q.** With `O=C(Nc1cc(Cl)ccc1O)Oc1cccc(C(F)(F)F)c1` as the compound, how does the T1/2 [1] read?
**A.** 0.0517 min

**Q.** With `CC#CCOC(=O)Nc1cc(Cl)ccc1O` as the compound, how does the half-life ([1]; phosphate buffer) read?
**A.** 566 min

**Q.** Which half-life ([1]; phosphate buffer) does the source give for `CC(=O)Nc1cccc(OC(=O)Nc2cc(Cl)ccc2O)c1` here?
**A.** 0.125 min

**Q.** With `O=C(Nc1cc(Cl)ccc1O)Oc1cccc(Cl)c1` as the compound, how does the T1/2 [1] read?
**A.** 0.0633 min

**Q.** With `O=C(Nc1cc(Cl)ccc1O)OCC(F)(F)F` as the compound, how does the half-life [1] read?
**A.** 2.58 min

**Q.** Which half-life ([1]; phosphate buffer) does the source give for `CC(=O)Nc1ccc(OC(=O)Nc2cc(Cl)ccc2O)cc1` here?
**A.** 0.118 min

**Q.** What about the half-life [4] of the same compound?
**A.** 0.6 min

**Q.** And the half-life [5]?
**A.** 0.833 min

**Q.** And the half-life (Homo sapiens [6])?
**A.** 1.1 min

**Q.** Which results are given for `O=C(Nc1cc(Cl)ccc1O)OCC(Cl)Cl`?
**A.** half-life [2]: 53.8 min; half-life [1]: 42.4 min; half-life (Homo sapiens [3]): 105 min

**Q.** With `O=C(Nc1cc(Cl)ccc1O)OCCCl` as the compound, how does the half-life ([1]; phosphate buffer) read?
**A.** 1310 min

**Q.** Which half-life ([1]; phosphate buffer) does the source give for `C#CCOC(=O)Nc1cc(Cl)ccc1O` here?
**A.** 108 min
